The experiment relates to Botrytis cinerea (B05.10). As to the kind of experiment: Resazurin antifungal assay of 180 alpha-factor peptide variants towards Botrytis (Example 2). The format is cell-based. The note with it: % inhibition of fungal growth, Botrytis conidia, resazurin; for Inhibition at 10 μM: peptide 10 μM; for Inhibition at 20 μM: peptide 20 μM; for Inhibition at 50 μM: peptide 50 μM; for Inhibition at 100 μM: peptide 100 μM. A digest of the protocol:
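Resazurin viability read-out (570/620 nm fluorescence) after a 24 h, 20° C incubation of B05.10 conidia, 5000 per well, with peptide at final 10-100 μM. Growth inhibition (%) was derived by subtracting conidia-only fluorescence; four replicates per treatment.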

Peptide text beside a SMILES is read from it.

By Inhibition is commonly meant the relative decrease from the control value, in per cent.

As for `CSCC[C@H](NC(=O)[C@@H]1CCCN1C(=O)[C@H](CCC(N)=O)NC(=O)CNC(=O)[C@@H]1CCCN1C(=O)[C@H](CCCCN)NC(=O)[C@H](Cc1ccccc1)NC(=O)[C@H](CCCNC(=N)N)NC(=O)[C@H](CC(C)C)NC(=O)[C@H](CC(C)C)NC(=O)[C@H](Cc1c[nH]cn1)NC(=O)[C@@H](N)Cc1c[nH]c2ccccc12)C(=O)N[C@@H](Cc1ccc(O)cc1)C(=O)O` [compound 4] (H-WHLLRFKPGQPMY-OH; N-terminus and C-terminus assumed), the “Inhibition at 10 μM” value is below 90%, the “Inhibition at 20 μM” value is below 90%, the “Inhibition at 50 μM” value turned out to be 100% and the “Inhibition at 100 μM” value was 100%.
With `CSCC[C@H](NC(=O)[C@@H]1CCCN1C(=O)[C@H](CCC(=O)O)NC(=O)CNC(=O)[C@@H]1CCCN1C(=O)[C@H](CCCCN)NC(=O)[C@H](Cc1ccccc1)NC(=O)[C@H](CCC(N)=O)NC(=O)CNC(=O)[C@H](CC(C)C)NC(=O)[C@H](Cc1c[nH]cn1)NC(=O)[C@@H](N)Cc1c[nH]c2ccccc12)C(=O)N[C@@H](Cc1ccc(O)cc1)C(=O)O` [compound 171] (H-WHLGQFKPGEPMY-OH; N-terminus and C-terminus assumed), the “Inhibition at 50 μM” value was below 90% and the “Inhibition at 100 μM” value was below 90%.
For `CSCC[C@H](NC(=O)[C@@H]1CCCN1C(=O)[C@H](CCC(N)=O)NC(=O)CNC(=O)[C@H](CC(N)=O)NC(=O)[C@H](CCCCN)NC(=O)[C@H](Cc1ccccc1)NC(=O)[C@H](CC(N)=O)NC(=O)[C@H](CC(C)C)NC(=O)[C@H](Cc1c[nH]c2ccccc12)NC(=O)[C@H](CCC(=O)O)NC(=O)[C@@H](N)CCCCN)C(=O)N[C@@H](Cc1ccc(O)cc1)C(=O)O` [compound 145] (H-KEWLNFKNGQPMY-OH; N-terminus and C-terminus assumed), the “Inhibition at 50 μM” value is on record as below 90% and the “Inhibition at 100 μM” value is on record as below 90%.
Regarding `CSCC[C@H](NC(=O)[C@@H]1CCCN1C(=O)[C@H](CCC(N)=O)NC(=O)CNC(=O)[C@@H]1CCCN1C(=O)[C@H](Cc1c[nH]cn1)NC(=O)[C@H](CC(C)C)NC(=O)[C@H](CCC(N)=O)NC(=O)[C@@H](NC(=O)[C@H](CC(C)C)NC(=O)[C@H](Cc1c[nH]cn1)NC(=O)[C@@H](N)CCCCN)C(C)C)C(=O)N[C@@H](Cc1ccc(O)cc1)C(=O)O` [compound 168] (H-KHLVQLHPGQPMY-OH; N-terminus and C-terminus assumed), the “Inhibition at 50 μM” value is given as below 90% and the “Inhibition at 100 μM” value is below 90%.
As to `CSCC[C@H](NC(=O)[C@@H]1CCCN1C(=O)[C@H](C)NC(=O)CNC(=O)[C@@H]1CCCN1C(=O)[C@H](CCCNC(=N)N)NC(=O)[C@H](Cc1ccccc1)NC(=O)[C@H](CCC(N)=O)NC(=O)[C@@H](NC(=O)[C@H](Cc1c[nH]c2ccccc12)NC(=O)[C@H](Cc1c[nH]cn1)NC(=O)[C@@H](N)Cc1c[nH]c2ccccc12)C(C)C)C(=O)N[C@@H](Cc1ccc(O)cc1)C(=O)O` [compound 97] (H-WHWVQFRPGAPMY-OH; N-terminus and C-terminus assumed), the “Inhibition at 10 μM” value is below 90%, the “Inhibition at 20 μM” value is recorded as below 90%, the “Inhibition at 50 μM” value is listed as 95.75% and the “Inhibition at 100 μM” value came out at 100%.
With `CSCC[C@H](NC(=O)[C@@H]1CCCN1C(=O)[C@H](CO)NC(=O)CNC(=O)[C@@H]1CCCN1C(=O)[C@H](CCCCN)NC(=O)[C@H](Cc1ccccc1)NC(=O)[C@H](C)NC(=O)[C@@H](NC(=O)[C@H](Cc1c[nH]c2ccccc12)NC(=O)[C@H](Cc1c[nH]cn1)NC(=O)[C@@H]1CCCN1)C(C)C)C(=O)N[C@@H](Cc1ccc(O)cc1)C(=O)O` [compound 161] (H-PHWVAFKPGSPMY-OH; N-terminus and C-terminus assumed), the “Inhibition at 50 μM” value is below 90% and the “Inhibition at 100 μM” value is reported as 90.52%.

(Values after US20250382332A1, “NOVEL ALPHA-FACTOR BASED PEPTIDES WITH ANTIFUNGAL ACTIVITY” (INVAIO SCIENCES, INC., priority 2024, published 2025).)
